Measurements: PubChem BioAssay AID2060627 (Molecular Pharmacology Branch, DTP, NCI, 2025)

Tested on: 156681-154-R-J1-PDC complex spheroid viability
Assay: Anticancer human tumor 156681-154-R-J1-PDC patient-derived melanoma cell line growth inhibition [CLK]
Conditions: for IC50: curve of first compound; for viability, T/C: stronger effect = lower value
How it was run: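 Multi-cell-type spheroids combined patient-derived tumor cells with HUVEC endothelial cells and human mesenchymal stem cells. Paired agents were dosed in half-log steps down from about clinical Cmax, or from 10 microM where Cmax was unknown.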

[1] = second compound 0.0316 µM, first compound 0.0316 µM
[2] = second compound 0.0316 µM, first compound 0.1 µM
[3] = second compound 0.1 µM, first compound 0.0316 µM
[4] = second compound 0.1 µM, first compound 0.1 µM
[5] = second compound 0.316 µM, first compound 0.0316 µM
[6] = second compound 0.316 µM, first compound 0.1 µM
[7] = second compound 1 µM, first compound 0.0316 µM
[8] = second compound 1 µM, first compound 0.1 µM
[9] = second compound 3.16 µM, first compound 0.0316 µM
[10] = second compound 3.16 µM, first compound 0.1 µM
[11] = second compound 10 µM, first compound 0.0316 µM
[12] = second compound 10 µM, first compound 0.1 µM
[13] = second compound 0.0316 µM, first compound 0.316 µM
[14] = second compound 0.0316 µM, first compound 1 µM
[15] = second compound 0.0316 µM, first compound 3.16 µM
[16] = second compound 0.0316 µM, first compound 10 µM
[17] = second compound 0.1 µM, first compound 0.316 µM
[18] = second compound 0.1 µM, first compound 1 µM
[19] = second compound 0.1 µM, first compound 3.16 µM
[20] = second compound 0.1 µM, first compound 10 µM
[21] = second compound 0.316 µM, first compound 0.316 µM
[22] = second compound 0.316 µM, first compound 1 µM
[23] = second compound 0.316 µM, first compound 3.16 µM
[24] = second compound 0.316 µM, first compound 10 µM
[25] = second compound 1 µM, first compound 0.316 µM
[26] = second compound 1 µM, first compound 1 µM
[27] = second compound 1 µM, first compound 3.16 µM
[28] = second compound 1 µM, first compound 10 µM
[29] = second compound 3.16 µM, first compound 0.316 µM
[30] = second compound 3.16 µM, first compound 1 µM
[31] = second compound 3.16 µM, first compound 3.16 µM
[32] = second compound 3.16 µM, first compound 10 µM
[33] = second compound 10 µM, first compound 0.316 µM
[34] = second compound 10 µM, first compound 1 µM
[35] = second compound 10 µM, first compound 3.16 µM
[36] = second compound 10 µM, first compound 10 µM
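Note: spheroids exposed to the agents for seven days.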
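Throughout, for viability, T/C: 100% = DMSO vehicle control viability.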

## Cn1ncnc1[C@H]1c2n[nH]c(=O)c3cc(F)cc(c23)N[C@@H]1c1ccc(F)cc1 + CN1CCN(c2cc(C(=O)Nc3cc4cc(-c5cnn(C)c5)ccc4cn3)ccn2)CC1
Second compound 0.0316 µM
  IC50: > 0.1 µM
Second compound 0.1 µM
  IC50: > 0.1 µM
Second compound 0.316 µM
  IC50: < 0.000316 µM
Second compound 1 µM
  IC50: < 0.000316 µM
Second compound 3.16 µM
  IC50: < 0.000316 µM
Second compound 10 µM
  IC50: < 0.000316 µM
Second compound 0.0316 µM, first compound 0.000316 µM
  viability, T/C: 88.8%
Second compound 0.0316 µM, first compound 0.001 µM
  viability, T/C: 91.7%
Second compound 0.0316 µM, first compound 0.00316 µM
  viability, T/C: 90.5%
Second compound 0.0316 µM, first compound 0.01 µM
  viability, T/C: 94.8%
[1]
  viability, T/C: 81.8%
[2]
  viability, T/C: 68.7%
Second compound 0.1 µM, first compound 0.000316 µM
  viability, T/C: 89%
Second compound 0.1 µM, first compound 0.001 µM
  viability, T/C: 84.5%
Second compound 0.1 µM, first compound 0.00316 µM
  viability, T/C: 75.2%
Second compound 0.1 µM, first compound 0.01 µM
  viability, T/C: 85.7%
[3]
  viability, T/C: 66.1%
[4]
  viability, T/C: 59.6%
Second compound 0.316 µM, first compound 0.000316 µM
  viability, T/C: 18.9%
Second compound 0.316 µM, first compound 0.001 µM
  viability, T/C: 23.7%
Second compound 0.316 µM, first compound 0.00316 µM
  viability, T/C: 18.3%
Second compound 0.316 µM, first compound 0.01 µM
  viability, T/C: 17.5%
[5]
  viability, T/C: 20.4%
[6]
  viability, T/C: 18.6%
Second compound 1 µM, first compound 0.000316 µM
  viability, T/C: 0.18%
Second compound 1 µM, first compound 0.001 µM
  viability, T/C: 2.71%
Second compound 1 µM, first compound 0.00316 µM
  viability, T/C: 0.14%
Second compound 1 µM, first compound 0.01 µM
  viability, T/C: 0.17%
[7]
  viability, T/C: 2.08%
[8]
  viability, T/C: 0.69%
Second compound 3.16 µM, first compound 0.000316 µM
  viability, T/C: 0.14%
Second compound 3.16 µM, first compound 0.001 µM
  viability, T/C: 1.63%
Second compound 3.16 µM, first compound 0.00316 µM
  viability, T/C: 1.37%
Second compound 3.16 µM, first compound 0.01 µM
  viability, T/C: 0.09%
[9]
  viability, T/C: 1.93%
[10]
  viability, T/C: 0.67%
Second compound 10 µM, first compound 0.000316 µM
  viability, T/C: 0.13%
Second compound 10 µM, first compound 0.001 µM
  viability, T/C: 3.21%
Second compound 10 µM, first compound 0.00316 µM
  viability, T/C: 2.34%
Second compound 10 µM, first compound 0.01 µM
  viability, T/C: 0.36%
[11]
  viability, T/C: 4.58%
[12]
  viability, T/C: 1.43%

## Nc1ccn(C2OC(CO)C(O)C2(F)F)c(=O)n1 (stereo unspecified) + CN1CCN(c2cc(C(=O)Nc3cc4cc(-c5cnn(C)c5)ccc4cn3)ccn2)CC1
Second compound 0.0316 µM
  IC50: < 0.0316 µM
Second compound 0.1 µM
  IC50: < 0.0316 µM
Second compound 0.316 µM
  IC50: < 0.0316 µM
Second compound 1 µM
  IC50: < 0.0316 µM
Second compound 3.16 µM
  IC50: < 0.0316 µM
Second compound 10 µM
  IC50: < 0.0316 µM
[1]
  viability, T/C: 16.4%
[2]
  viability, T/C: 16.1%
[13]
  viability, T/C: 20.3%
[14]
  viability, T/C: 14.8%
[15]
  viability, T/C: 12%
[16]
  viability, T/C: 16.9%
[3]
  viability, T/C: 19%
[4]
  viability, T/C: 13.4%
[17]
  viability, T/C: 12.9%
[18]
  viability, T/C: 12.8%
[19]
  viability, T/C: 10.9%
[20]
  viability, T/C: 12.8%
[5]
  viability, T/C: 13.8%
[6]
  viability, T/C: 14%
[21]
  viability, T/C: 10.1%
[22]
  viability, T/C: 11.7%
[23]
  viability, T/C: 16.5%
[24]
  viability, T/C: 9.83%
[7]
  viability, T/C: 0.16%
[8]
  viability, T/C: 0.82%
[25]
  viability, T/C: 0.37%
[26]
  viability, T/C: 1.65%
[27]
  viability, T/C: 0.78%
[28]
  viability, T/C: 1.59%
[9]
  viability, T/C: 0.16%
[10]
  viability, T/C: 1.54%
[29]
  viability, T/C: 0.42%
[30]
  viability, T/C: 0.1%
[31]
  viability, T/C: 4.55%
[32]
  viability, T/C: 0.67%
[11]
  viability, T/C: 0.15%
[12]
  viability, T/C: 2.7%
[33]
  viability, T/C: 0.29%
[34]
  viability, T/C: 4.06%
[35]
  viability, T/C: 1.19%
[36]
  viability, T/C: 2.59%

## O=c1[nH]cc(F)c(=O)[nH]1 + CN1CCN(c2cc(C(=O)Nc3cc4cc(-c5cnn(C)c5)ccc4cn3)ccn2)CC1
Second compound 0.0316 µM
  IC50: 7.52 µM
Second compound 0.1 µM
  IC50: 4.68 µM
Second compound 0.316 µM
  IC50: < 0.0316 µM
Second compound 1 µM
  IC50: < 0.0316 µM
Second compound 3.16 µM
  IC50: < 0.0316 µM
Second compound 10 µM
  IC50: < 0.0316 µM
[1]
  viability, T/C: 106%
[2]
  viability, T/C: 104%
[13]
  viability, T/C: 96.2%
[14]
  viability, T/C: 113%
[15]
  viability, T/C: 74.2%
[16]
  viability, T/C: 42%
[3]
  viability, T/C: 99.3%
[4]
  viability, T/C: 77.6%
[17]
  viability, T/C: 83.7%
[18]
  viability, T/C: 84.6%
[19]
  viability, T/C: 57.8%
[20]
  viability, T/C: 34.9%
[5]
  viability, T/C: 17.3%
[6]
  viability, T/C: 21.2%
[21]
  viability, T/C: 21.1%
[22]
  viability, T/C: 20.9%
[23]
  viability, T/C: 20.4%
[24]
  viability, T/C: 16.1%
[7]
  viability, T/C: 0.17%
[8]
  viability, T/C: 1.7%
[25]
  viability, T/C: 0.17%
[26]
  viability, T/C: 1.14%
[27]
  viability, T/C: 3.07%
[28]
  viability, T/C: 0.39%
[9]
  viability, T/C: 0.09%
[10]
  viability, T/C: 3.26%
[29]
  viability, T/C: 2.64%
[30]
  viability, T/C: 0.08%
[31]
  viability, T/C: 3.66%
[32]
  viability, T/C: 5.79%
[11]
  viability, T/C: 0.09%
[12]
  viability, T/C: 1.51%
[33]
  viability, T/C: 0.76%
[34]
  viability, T/C: 2.73%
[35]
  viability, T/C: 1.68%
[36]
  viability, T/C: 3.54%
